US4889860A (Nova Pharmaceutical Corporation, priority 1987, dated 1989)
Like-named read-outs stand apart in the source and are kept apart here.

How the values were obtained:
[1] = Simone et al.; cited from earlier work
[2] = target: T1, mu-type opioid receptor (Rattus norvegicus, UniProt P33535); experiment: inhibition of specific [^3 H] DAGO binding to rat forebrain membranes
T1 construct: using rat forebrain membranes; from tissue; host or cells: rat forebrain membranes
Protocol: (§1) The interaction of some of the novel compounds with mu and delta-type opioid receptors present in brain membranes was examined in vitro. […] DAGO (mu-type receptor) or [^3 H] DADLE (delta-type receptor) was determined using rat forebrain membranes. Computer assisted analysis (EBDA) was used to determine apparent Ki values for the various compounds.
(§2) Values represent the MEAN±S.E.M. of the Ki(nM) for each compound to inhibit specific binding of the indicated ligand to rat brain membranes. The values are from two-five separate experiments and were calculated according to the method of Cheng and Prusoff [Biochem. Pharmacol. 1973, 22, 3099-3108] together with the EBDA Program. Numbers in parentheses are the mean Hill coefficients for each compound to inhibit ligand binding.
(§3) Values represent the MEAN±S.E.M. of the Ki(nM) for each compound to inhibit specific binding of the indicated ligand to rat brain membranes. The values are from two.div.seven separate experiments and were calculated according to the method of Cheng and Prusoff together with the EBDA program. Numbers in parentheses are the mean Hill coefficients for each compound to inhibit ligand binding. N.D.=not determined
(§4) The interaction of some of the novel compounds with mu, delta and kappa - type opioid receptors present in brain membranes was examined in vitro. […] DAGO (mu-type receptor), or [^3 H] DADLE (Delta-type receptor) using rat forebrain membranes and [^3 H] EKC (kappa-type receptor) using guiniea pig cerebellum membrane was determined. Computer assisted analysis (EBDA) was used to determine apparent Ki values for the various compounds.
(§5) The values represent the MEAN±S.E.M. of the Ki(nM) for each compound to inhibit specific binding of the indicated ligand. Each value represents the mean of three individual experiments performed on separate occasions.

[3] = target: delta-type opioid receptor (Rattus norvegicus, UniProt P33533); experiment: inhibition of specific [^3 H] DADLE binding to rat forebrain membranes
delta-type opioid receptor, sequence (P33533 whole entry): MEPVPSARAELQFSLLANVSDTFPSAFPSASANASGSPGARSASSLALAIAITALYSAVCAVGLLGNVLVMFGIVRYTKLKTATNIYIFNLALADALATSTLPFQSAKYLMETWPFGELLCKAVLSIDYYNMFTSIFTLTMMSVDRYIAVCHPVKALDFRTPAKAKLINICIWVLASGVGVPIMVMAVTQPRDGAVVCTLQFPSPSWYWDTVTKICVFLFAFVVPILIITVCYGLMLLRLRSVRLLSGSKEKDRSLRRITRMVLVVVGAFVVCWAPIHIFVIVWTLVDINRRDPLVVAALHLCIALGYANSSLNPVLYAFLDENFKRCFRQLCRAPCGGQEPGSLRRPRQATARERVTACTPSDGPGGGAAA
Protocol: as §1, §2, §3, §4, §5

[4] = test system: tail flick response; experiment: radiant heat tail flick analgesia in rats; format: in vivo, rat; conditions: for ED50: Rattus norvegicus; for dose producing approximately equal analgesia: tail flick, through 3.5 hr; for antagonism of tail-flick response to heat: rat
Protocol: The analgesic properties of the compounds prepared in accordance with Examples III and IV were evaluated in rats using the radiant heat and tail flick paradigm. […] Flick latencies in FIGS. 11-13 were determined at 30 minute intervals through 3.5 h and the data was expressed as a percentage of the maximum possible effect (% MPE). A 15 sec. cut-off latency was used to minimize tissue damage. The values shown are the mean values for 6 rats.
(§6) A 15 sec. cut-off latency was used to prevent tissue damage.
The analgesic properties of compounds XXII and XXIII were evaluated in rats using the writhing assay and tail flick paradigm. […] The writhing assay which uses a chemical stimulus to produce pain, is believed to be more sensitive to kappa agonist activity than other measures of analgesia which uses a heat stimulus (Dykstra, L.A. Behavioral Pharmacology: The Current Status, N.Y.: Allan R. Liss. Inc. 1985).

[5] = deaths of rats during tail flick experiment at high doses; conditions: S.C.
Text: as §6

[6] = target: T2, kappa-type opioid receptor (Cavia porcellus, UniProt P41144); experiment: inhibition of specific [^3 H] EKC binding to guinea pig cerebellum membrane; conditions: for fold more potent to inhibit specific [3H]EKC: than other compounds or naltrexone
T2 construct: using guiniea pig cerebellum membrane; from tissue; host or cells: guinea pig cerebellum membranes
T2 sequence (P41144 whole entry): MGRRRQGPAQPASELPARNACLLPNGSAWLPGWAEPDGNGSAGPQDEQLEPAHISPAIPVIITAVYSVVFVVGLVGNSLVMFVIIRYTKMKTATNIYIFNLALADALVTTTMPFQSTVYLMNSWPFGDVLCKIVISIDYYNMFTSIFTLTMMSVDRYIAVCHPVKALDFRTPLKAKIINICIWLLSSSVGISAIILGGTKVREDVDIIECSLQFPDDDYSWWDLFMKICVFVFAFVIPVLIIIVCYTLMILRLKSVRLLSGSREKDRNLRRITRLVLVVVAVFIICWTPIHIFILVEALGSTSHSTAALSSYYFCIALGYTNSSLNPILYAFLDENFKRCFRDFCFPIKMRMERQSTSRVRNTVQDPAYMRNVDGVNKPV
Protocol: as §4, §5

[7] = test system: writhing response; experiment: animal or person; format: in vivo, mouse; conditions: for ED50: Mus musculus, Table 7, read-out: ED50, Acetic Acid Induced Writhing in the Mouse; for potency versus morphine to antagonize writhing response: mouse, in vivo, ip; for kappa selectivity and agonist activity: writhing and tail flick
[8] = test system: bombesin-induced scratching; experiment: bombesin-induced scratching test; format: in vivo; conditions: sc; subcutaneous; read-out: mean A50, bombesin-induced scratching
Text: (Cowan A. Trendsin Pharmacology Science, 7:69-72, 1986) With this test the intracerebroventricular administration of bombesin produces a characteristic scratching response.

[9] = conditioned taste aversion in rats; format: in vivo, rat; conditions: I.P., day 10
Protocol: The ability of a compound to inhibit feeding may not be related to its anorectic properties, but rather to the ability of that compound to produce a conditioned taste aversion. This possibility was tested in the following experiment. Animals were adapted to water deprivation by restricting their access to water to a single 30 min presentation occurring at the same time every day. Baseline water intakes were determined for 7 days until intakes had stabilized, and animals were assigned to treatment groups based on their intakes on the final baseline day. On the following day (day 8), all rats received a bottle of condensed milk (diluted 2:1 water:milk) in place of the water, and intakes were recorded for 30 min. Fifteen minutes after the milk was removed, rats were administered an I.P. injection of vehicles, LiCl (299.6 μmol/kg) or the compound of Example XII (1.15, 2.31, 11.55 and 23.09 μmol/kg). The compound of Example XII was dissolved in 0.3% acetic acid in a volume of 4 ml/kg. LiCl was dissolved in saline, and serves as a positive control, since it is a compound that reliably produces a strong conditioned taste aversion. This procedure was repeated on day 9. On day 10, all rats were given a two-bottle choice of water or the milk:water solution, and intakes were recorded for 30 min. Data for each experiment were analyzed by one-way ANOVA, and post-hoc comparisons were performed using Dunnett's test.
The effects of the compound of Example XII in producing a conditioned taste aversion are illustrated in FIGS. 28 and 29. In FIGS. 28 and 29 the data represent the mean ±SEM for each group. **=p<0.01 (Dunnett's test). Abbreviations: SAL, saline; AA, 0.3% acetic acid in distilled water; LiCl, lithium chloride. Doses of the compound of Example XII for each group are expressed in μmole/kg. The number of animals per group: SAL, 4: AA, LiCl and each dose of Example XII, 5. FIG. 28: Total milk intake in ml on day 10. FIG. 29: Preference ratio on day 10.

[10] = 1 and 2 mg/kg; cited from earlier work
[11] = Ki, inhibition of specific [^3 H] DAGO binding, Tables 1 and 2, rat brain membranes, MEAN±S.E.M.
[12] = read-out: Ki, inhibition of specific [^3 H] DADLE binding, Tables 1 and 2, rat brain membranes, MEAN±S.E.M.
[13] = sc, 0.5 h, S.C., 30 min, read-out: ED50, tail flick analgesia
[14] = read-out: (Ki) nM, δ receptor (Rat Forebrain), Table 6, [^3 H] DADLE, mean of three experiments
[15] = Table 7, read-out: ED50, Antagonism of the Tail-Flick Response in the Rat

T1 sequence (P33535 whole entry): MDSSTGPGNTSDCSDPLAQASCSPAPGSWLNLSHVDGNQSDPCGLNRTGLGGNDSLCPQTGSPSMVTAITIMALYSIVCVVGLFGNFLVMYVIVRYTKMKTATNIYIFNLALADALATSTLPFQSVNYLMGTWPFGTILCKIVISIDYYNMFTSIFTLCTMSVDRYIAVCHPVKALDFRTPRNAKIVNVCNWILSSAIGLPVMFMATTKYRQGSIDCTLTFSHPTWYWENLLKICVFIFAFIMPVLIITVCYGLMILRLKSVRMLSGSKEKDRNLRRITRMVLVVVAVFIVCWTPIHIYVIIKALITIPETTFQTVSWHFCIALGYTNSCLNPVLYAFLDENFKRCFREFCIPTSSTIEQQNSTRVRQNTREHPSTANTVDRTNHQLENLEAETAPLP

SMILES: C=CCN1CC[C@]23c4c5ccc(O)c4O[C@H]2/C(=N/N=C2\CC[C@@]4(O)[C@H]6Cc7ccc(O)c8c7[C@@]4(CCN6CC=C)[C@H]2O8)CC[C@@]3(O)[C@H]1C5 [naloxonazine]
- inhibition of overnight feeding [1]: inhibition of overnight feeding

SMILES: CN1CC[C@]23c4c5ccc(O)c4O[C@H]2C(=NOc2ccccc2)CC[C@@]3(O)[C@H]1C5 [Example IV, 6-Phenyloximino-17-methyl-4,5 α-epoxy-3, 14-dihydroxymorphinan]
- Ki [2, 11]: 0.84 ± 0.09 nM
- Ki [3, 12]: 0.91 ± 0.1 nM
- ED50 [4, 13]: 0.18 µmol/kg
- dose producing approximately equal analgesia ([4]; S.C.): ~1.12 µmol/kg
- number of deaths out of six rats ([5]; 4.48 μmole/kg): 1
- number of deaths out of six rats ([5]; 8.95 μmole/kg): 1
- number of deaths out of six rats ([5]; 13.4 μmole/kg): 2

SMILES: Oc1ccc2c3c1O[C@H]1C(=NOCCc4ccccc4)CC[C@@]4(O)[C@@H](C2)N(CC2CC2)CC[C@]314 [Example XXII, 6-[2-phenethyl]oximino-17-cyclopropylmethyl-4,5 α-epoxy-3,14-dihydroxymorphinan]
- Ki ([2]; (Ki) nM, μ receptor (Rat Forebrain), Table 6, [^3 H] DAGO, mean of three experiments): 0.88 nM
- Ki [3, 14]: 0.6 nM
- Ki [6]: 280 pM
- fold more potent to inhibit specific [3H]EKC [6]: 3 fold
- ED50 [4, 15]: 4.02 mg/kg
- antagonism of tail-flick response to heat [4]: effectively antagonized the tail-flick response to a heat stimulus in the rat
- ED50 [7]: 0.01 mg/kg
- potency versus morphine to antagonize writhing response [7]: more potent than morphine to antagonize the writhing response
- kappa selectivity and agonist activity [7]: selective to kappa receptors and possess kappa agonist activity

SMILES: Oc1ccc2c3c1O[C@H]1C(=NOCCCc4ccccc4)CC[C@@]4(O)[C@@H](C2)N(CC2CC2)CC[C@]314 [6[3-phenylpropyl] oximino naltrexone]
- ED50 [8]: 0.08 mg/kg

SMILES: CN1CC[C@]23c4c5ccc(O)c4O[C@H]2C(=NOCc2ccccc2)CC[C@@]3(O)[C@H]1C5 [Example III, 6-Benzyloximino-17-methyl-4,5 α-epoxy-3, 14-dihydroxymorphinan]
- Ki [2, 11]: 1.58 ± 0.07 nM
- Ki [3, 12]: 2.8 ± 1.6 nM
- ED50 [4, 13]: 0.64 µmol/kg
- dose producing approximately equal analgesia ([4]; S.C.): ~2.21 µmol/kg
- number of deaths out of six rats ([5]; 8.85 μmole/kg): 1
- number of deaths out of six rats ([5]; 17.7 μmole/kg): 3
- number of deaths out of six rats ([5]; 26.6 μmole/kg): 3

SMILES: [Cl-].[Li+] [LiCl, lithium chloride, reference compound]
- conditioned taste aversion (milk intake, preference ratio) [9]: significant decreases in milk intake and in the preference ratio were evident only for LiCl

SMILES: COC(=O)CON=C1CC[C@@]2(O)[C@H]3Cc4ccc(OC)c5c4[C@@]2(CCN3CC2CC2)[C@H]1O5 [N-cyclopropylmethyl-nor-14-hydroxydihydrocodeinone-6-carboxymethyl methyl ester]
- suppression of symptoms in morphine dependent monkeys [10]: partial suppression of symptoms was obtained

SMILES: Oc1ccc2c3c1O[C@H]1C(=NOCCCc4ccccc4)CC[C@@]4(O)[C@@H](C2)N(CC2CC2)CC[C@]314 [Example XXIII]
- Ki ([2]; read-out: (Ki) nM, μ receptor (Rat Forebrain), Table 6, [^3 H] DAGO, mean of three experiments): 0.32 nM
- Ki [3, 14]: 0.44 nM
- fold more potent to inhibit specific [3H]EKC [6]: 100 fold
- ED50 [4, 15]: 1.84 mg/kg
- antagonism of tail-flick response to heat [4]: effectively antagonized the tail-flick response to a heat stimulus in the rat
- ED50 [7]: 0.02 mg/kg
- potency versus morphine to antagonize writhing response [7]: more potent than morphine to antagonize the writhing response
- kappa selectivity and agonist activity [7]: selective to kappa receptors and possess kappa agonist activity
